Read-outs that look alike come from different tables or passages of the source.
Target: T1, FXR ligand binding domain (GST-FXR LBD fusion protein, human FXR aa 193-473) (Homo sapiens, UniProt Q96RI1)
T1 construct: fused on or other part: Glutathione-S-transferase (GST) fused N-terminally to the FXR LBD, used to capture the protein on glutathione SPA beads
T1 sequence (Q96RI1 211-486 limits assumed): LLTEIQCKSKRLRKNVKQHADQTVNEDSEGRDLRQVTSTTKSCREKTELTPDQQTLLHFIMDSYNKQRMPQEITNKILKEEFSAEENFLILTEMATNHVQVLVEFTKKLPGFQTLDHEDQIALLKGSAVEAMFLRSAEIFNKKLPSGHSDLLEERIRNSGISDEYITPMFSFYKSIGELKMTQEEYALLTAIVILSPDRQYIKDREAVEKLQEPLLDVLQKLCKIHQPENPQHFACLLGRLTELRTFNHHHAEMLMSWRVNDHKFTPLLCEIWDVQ
Experiment: Radioligand binding assay (scintillation proximity, radioligand displacement)
Conditions: 40 nM GST-FXR LBD on SPA beads, test compound 6×10^−9 M to 2.5×10^−5 M
Procedure, shortened: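 40 nM GST-FXR LBD, E. coli-expressed, bound to glutathione yttrium silicate SPA beads in 50 mM Hepes pH 7.4, 10 mM NaCl, 5 mM MgCl2, 0.01% CHAPS. Test compounds displace radioligand (e.g. 20 nM benzimidazolyl-acetamide ligand); bound ligand measured by scintillation proximity counting.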

| IC50 (read-out: h-IC50 Binding) | Structure (SMILES) | IC50 (h-IC50 Binding) |
| --- | --- | --- |
| 10 nM | Cc1cc(Cl)ccc1-c1nc2cc(F)c(F)cc2n1C(COc1c(F)cc(C(=O)O)cc1F)C1CCCCC1 (single isomer, unassigned; (-)) [Example 125, (−)-4-{2-[2-(4-Chloro-2-methyl-phenyl)-5,6-difluoro-benzoimidazol-1-yl]-2-cyclohexyl-ethoxy}-3,5-difluoro-benzoic acid] | – |
| 10 nM | O=C(O)c1cc(F)c(OCC(C2CCCCCC2)n2c(-c3ccc(Cl)cc3)nc3cc(F)c(F)cc32)c(F)c1 (single isomer, unassigned; (-)) [Example 132, (−)-4-{2-[2-(4-Chloro-phenyl)-5,6-difluoro-benzoimidazol-1-yl]-2-cycloheptyl-ethoxy}-3,5-difluoro-benzoic acid] | – |
| 3 nM | O=C(O)c1ccc(CCC(C2CCCCC2)n2c(-c3ccccc3)nc3cc(F)c(F)cc32)cc1 (single isomer, unassigned; (-)) [Example 143, (−)-4-[3-Cyclohexyl-3-(5,6-difluoro-2-phenyl-benzoimidazol-1-yl)-propyl]-benzoic acid] | – |
| 1 nM | COc1ccc(-c2nc3cc(F)c(F)cc3n2C(CCc2ccc(C(=O)O)cc2)C2CCCCC2)c(OC)n1 (single isomer, unassigned; (-)) [Example 146, (−)-4-{3-Cyclohexyl-3-[2-(2,6-dimethoxy-pyridin-3-yl)-5,6-difluoro-benzoimidazol-1-yl]-propyl}-benzoic acid] | – |
| 32100 nM | Fc1cc2nc(-c3ccc(Cl)cc3)n([C@H](COCC3CCCCC3)C3CCCCC3)c2cc1F [Example 3, (+)-2-(4-Chloro-phenyl)-1-((S)-1-cyclohexyl-2-cyclohexylmethoxy-ethyl)-5,6-difluoro-1H-benzoimidazole] | – |
| – | O=C(O)c1ccc(OCC(C2CCCCC2)n2c(-c3ccc(Cl)cc3)nc3cc(F)c(F)cc32)c(F)c1 (stereo not shown) [Example 7, 4-{2-[2-(4-Chloro-phenyl)-5,6-difluoro-benzoimidazol-1-yl]-2-cyclohexyl-ethoxy}-3-fluorobenzoic acid] | 20 nM |
| – | O=C(O)c1ccc(OCC(C2CCCCC2)n2c(-c3ccc(Cl)cc3)nc3cc(F)c(F)cc32)c(Cl)c1 (stereo not shown) [Example 10, 3-Chloro-4-{2-[2-(4-chloro-phenyl)-5,6-difluoro-benzoimidazol-1-yl]-2-cyclohexyl-ethoxy}-benzoic acid] | 30 nM |
| 20 nM | Cc1cc(C(=O)O)ccc1OCC(C1CCCCC1)n1c(-c2ccc(Cl)cc2)nc2cc(F)c(F)cc21 (stereo not shown) [Example 11, 4-{2-[2-(4-Chloro-phenyl)-5,6-difluoro-benzoimidazol-1-yl]-2-cyclohexyl-ethoxy}-3-methyl-benzoic acid] | – |
| 2000 nM | O=C(O)c1ccccc1OCC(C1CCCCC1)n1c(-c2ccc(Cl)cc2)nc2cc(F)c(F)cc21 (stereo not shown) [Example 14, 2-{2-[2-(4-Chloro-phenyl)-5,6-difluoro-benzoimidazol-1-yl]-2-cyclohexyl-ethoxy}-benzoic acid] | – |
| 70 nM | O=C(O)c1cccc(OCC(C2CCCCC2)n2c(-c3ccc(Cl)cc3)nc3cc(F)c(F)cc32)c1 (stereo not shown) [Example 15, 3-{2-[2-(4-Chloro-phenyl)-5,6-difluoro-benzoimidazol-1-yl]-2-cyclohexyl-ethoxy}-benzoic acid] | – |
| 200 nM | Cc1ccc(C(=O)O)cc1OCC(C1CCCCC1)n1c(-c2ccc(Cl)cc2)nc2cc(F)c(F)cc21 (stereo not shown) [Example 16, 3-{2-[2-(4-Chloro-phenyl)-5,6-difluoro-benzoimidazol-1-yl]-2-cyclohexyl-ethoxy}-4-methyl-benzoic acid] | – |
| 200 nM | Cc1c(OCC(C2CCCCC2)n2c(-c3ccc(Cl)cc3)nc3cc(F)c(F)cc32)cccc1C(=O)O (stereo not shown) [Example 17, 3-{2-[2-(4-Chloro-phenyl)-5,6-difluoro-benzoimidazol-1-yl]-2-cyclohexyl-ethoxy}-2-methyl-benzoic acid] | – |
| 1300 nM | O=C(O)c1ccc(OCC(C2CCCCC2)n2c(-c3ccc(Cl)cc3)nc3cc(F)c(F)cc32)cn1 (stereo not shown) [Example 18, 5-{2-[2-(4-Chloro-phenyl)-5,6-difluoro-benzoimidazol-1-yl]-2-cyclohexyl-ethoxy}-pyridine-2-carboxylic acid] | – |
| 50 nM | O=C(O)c1ccc(OCC(C2CCCCC2)n2c(-c3ccc(Cl)cc3)nc3cc(F)c(F)cc32)nc1 (stereo not shown) [Example 19, 6-{2-[2-(4-Chloro-phenyl)-5,6-difluoro-benzoimidazol-1-yl]-2-cyclohexyl-ethoxy}-nicotinic acid] | – |
| 30 nM | O=C(O)c1cnc(OCC(C2CCCCC2)n2c(-c3ccc(Cl)cc3)nc3cc(F)c(F)cc32)c(Cl)c1 (stereo not shown) [Example 22, 5-Chloro-6-{2-[2-(4-chloro-phenyl)-5,6-difluoro-benzoimidazol-1-yl]-2-cyclohexyl-ethoxy}-nicotinic acid] | – |
| 800 nM | Cc1nc(C(=O)O)ncc1OCC(C1CCCCC1)n1c(-c2ccc(Cl)cc2)nc2cc(F)c(F)cc21 (stereo not shown) [Example 25, 5-{2-[2-(4-Chloro-phenyl)-5,6-difluoro-benzoimidazol-1-yl]-2-cyclohexyl-ethoxy}-4-methyl-pyrimidine-2-carboxylic acid] | – |
| 20 nM | O=C(O)c1cnc(OCC(C2CCCCC2)n2c(-c3ccc(Cl)cc3)nc3cc(F)c(F)cc32)c2ccsc12 (stereo not shown) [Example 26, 4-{2-[2-(4-Chloro-phenyl)-5,6-difluoro-benzoimidazol-1-yl]-2-cyclohexyl-ethoxy}-thieno[3,2-c]pyridine-7-carboxylic acid] | – |
| 200 nM | Fc1cc2nc(-c3ccc(Cl)cc3)n(C(COc3ccccn3)C3CCCCC3)c2cc1F (stereo not shown) [Example 29, 2-(4-Chloro-phenyl)-1-[1-cyclohexyl-2-(pyridin-2-yloxy)-ethyl]-5,6-difluoro-1H-benzoimidazole] | – |
| 500 nM | O=C(O)c1cccc(OCC(C2CCCCC2)n2c(-c3ccc(Cl)cc3)nc3cc(F)c(F)cc32)n1 (stereo not shown) [Example 30, 6-{2-[2-(4-Chloro-phenyl)-5,6-difluoro-benzoimidazol-1-yl]-2-cyclohexyl-ethoxy}-pyridine-2-carboxylic acid] | – |
| 600 nM | COc1cc(C(=O)O)cc(OCC(C2CCCCC2)n2c(-c3ccc(Cl)cc3)nc3cc(F)c(F)cc32)n1 (stereo not shown) [Example 31, 2-{2-[2-(4-Chloro-phenyl)-5,6-difluoro-benzoimidazol-1-yl]-2-cyclohexyl-ethoxy}-6-methoxy-isonicotinic acid] | – |
| 1000 nM | O=C(O)c1ccc(OCC(C2CCCCC2)n2c(-c3ccc(Cl)cc3)nc3ccccc32)cc1 (stereo not shown) [Example 32, 4-{2-[2-(4-Chloro-phenyl)-benzoimidazol-1-yl]-2-cyclohexyl-ethoxy}-benzoic acid] | – |
| 500 nM | O=C(O)c1ccc(OCC(C2CCCCC2)n2c(-c3ccc(Cl)cc3)nc3ccccc32)c(F)c1 (stereo not shown) [Example 33, 4-{2-[2-(4-Chloro-phenyl)-benzoimidazol-1-yl]-2-cyclohexyl-ethoxy}-3-fluoro-benzoic acid] | – |
| 40 nM | Fc1cc2nc(-c3ccc(Cl)cc3)n(C(COc3ccccc3F)C3CCCCC3)c2cc1F (stereo not shown) [Example 34, 2-(4-Chloro-phenyl)-1-[1-cyclohexyl-2-(2-fluoro-phenoxy)-ethyl]-5,6-difluoro-1H-benzoimidazole] | – |
| 200 nM | Fc1cc2nc(-c3ccc(Cl)cc3)n(C(COc3cccnc3)C3CCCCC3)c2cc1F (stereo not shown) [Example 35, 2-(4-Chloro-phenyl)-1-[1-cyclohexyl-2-(pyridin-3-yloxy)-ethyl]-5,6-difluoro-1H-benzoimidazole] | – |
| 90 nM | Fc1cc2nc(-c3ccc(Cl)cc3)n(C(COc3ccncc3)C3CCCCC3)c2cc1F (stereo not shown) [Example 36, 2-(4-Chloro-phenyl)-1-[1-cyclohexyl-2-(pyridin-4-yloxy)-ethyl]-5,6-difluoro-1H-benzoimidazole] | – |
| 400 nM | O=C(O)c1ccnc(OCC(C2CCCCC2)n2c(-c3ccc(Cl)cc3)nc3cc(F)c(F)cc32)c1 (stereo not shown) [Example 37, 2-{2-[2-(4-Chloro-phenyl)-5,6-difluoro-benzoimidazol-1-yl]-2-cyclohexyl-ethoxy}-isonicotinic acid] | – |
| 100 nM | Fc1cc2nc(-c3ccc(Cl)cc3)n(C(COc3ccccc3)C3CCCCC3)c2cc1F (stereo not shown) [Example 38, 2-(4-Chloro-phenyl)-1-(1-cyclohexyl-2-phenoxy-ethyl)-5,6-difluoro-1H-benzoimidazole] | – |
| 30 nM | O=C(O)c1ccc(OCC(C2CCCCC2)n2c(-c3ccc(Cl)cc3)nc3cc(F)c(F)cc32)c(C(F)(F)F)c1 (stereo not shown) [Example 39, 4-{2-[2-(4-Chloro-phenyl)-5,6-difluoro-benzoimidazol-1-yl]-2-cyclohexyl-ethoxy}-3-trifluoromethyl-benzoic acid] | – |
| 200 nM | O=C(O)c1c(F)cc(OCC(C2CCCCC2)n2c(-c3ccc(Cl)cc3)nc3cc(F)c(F)cc32)cc1F (stereo not shown) [Example 42, 4-{2-[2-(4-Chloro-phenyl)-5,6-difluoro-benzoimidazol-1-yl]-2-cyclohexyl-ethoxy}-2,6-difluoro-benzoic acid] | – |
| 20 nM | O=C(O)COc1ccc(OCC(C2CCCCC2)n2c(-c3ccc(Cl)cc3)nc3cc(F)c(F)cc32)nc1 (stereo not shown) [Example 45, (6-{2-[2-(4-Chloro-phenyl)-5,6-difluoro-benzoimidazol-1-yl]-2-cyclohexyl-ethoxy}-pyridin-3-yloxy)-acetic acid] | – |

| Structure (SMILES) | IC50 (read-out: h-IC50 Binding) | IC50 (h-IC50 Binding) |
| --- | --- | --- |
| O=C(O)c1ccc(OCC(C2CCCCC2)n2c(-c3ccc(Cl)cc3)nc3cc(F)c(F)cc32)cc1 (stereo not shown) [Example 4, 4-{2-[2-(4-Chloro-phenyl)-5,6-difluoro-benzoimidazol-1-yl]-2-cyclohexyl-ethoxy}-benzoic acid] | 70 nM | – |
